Data from patent US20100041089A1, “IMPROVED METHOD FOR DETECTING CHEMICAL […]” (priority 2006, published 2010).

Tested on: yeast genes (expressed mRNA)
Assay: DNA chip measurement of expressed mRNA of yeast genes after culture with a toxic chemical substance
Assay type: cell-based, Saccharomyces cerevisiae S288C
Summary of the method: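 Expression is given as treated/untreated fluorescence ratio on a whole-genome yeast DNA chip, a ratio of two or more being significant. Log-phase S288C cultures in YPD at 25 °C received the chemical for 2 h at a dose that slows growth without killing. mRNA was reverse-transcribed with Cy3- or Cy5-dUTP.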

Q: C=CC=O [(14), Acrolein] was tested. Which “The level of expressed mRNA in the presence of chemical substance/The level of expressed mRNA in the absence of chemical substance” value (yeast gene YMR316W, cultured two hours with substance) did it give?
A: 1.3

Q: What about the “The level of expressed mRNA in the presence of chemical substance/The level of expressed mRNA in the absence of chemical substance” value (yeast gene YNL036W) of the same compound?
A: 5.1

Q: What about the “The level of expressed mRNA in the presence of chemical substance/The level of expressed mRNA in the absence of chemical substance” value (yeast gene YNL044W, cultured two hours with substance) of the same compound?
A: 1.2

Q: And the “The level of expressed mRNA in the presence of chemical substance/The level of expressed mRNA in the absence of chemical substance” value (yeast gene YNL074C, cultured two hours with substance)?
A: 0.6

Q: What about the “The level of expressed mRNA in the presence of chemical substance/The level of expressed mRNA in the absence of chemical substance” value (yeast gene YNL092W, cultured two hours with substance) of the same compound?
A: 1.2

Q: What about the “The level of expressed mRNA in the presence of chemical substance/The level of expressed mRNA in the absence of chemical substance” value (yeast gene YNL115C, cultured two hours with substance) of the same compound?
A: 1.0

Q: And the “The level of expressed mRNA in the presence of chemical substance/The level of expressed mRNA in the absence of chemical substance” value (yeast gene YNL155W, cultured two hours with substance)?
A: 2.1

Q: And the “The level of expressed mRNA in the presence of chemical substance/The level of expressed mRNA in the absence of chemical substance” value (yeast gene YNL156C, cultured two hours with substance)?
A: 1.4

Q: What about the “The level of expressed mRNA in the presence of chemical substance/The level of expressed mRNA in the absence of chemical substance” value (yeast gene YNL190W, cultured two hours with substance) of the same compound?
A: 0.6

Q: What about the “The level of expressed mRNA in the presence of chemical substance/The level of expressed mRNA in the absence of chemical substance” value (yeast gene YNL195C, cultured two hours with the chemical substance) of the same compound?
A: 1.5

Q: What about the “The level of expressed mRNA in the presence of chemical substance/The level of expressed mRNA in the absence of chemical substance” value (yeast gene YNL208W, cultured two hours with substance) of the same compound?
A: 1.0

Q: And the “The level of expressed mRNA in the presence of chemical substance/The level of expressed mRNA in the absence of chemical substance” value (yeast gene YNL234W, cultured two hours with substance)?
A: 1.5

Q: And the “The level of expressed mRNA in the presence of chemical substance/The level of expressed mRNA in the absence of chemical substance” value (yeast gene YNL281W, cultured two hours with substance)?
A: 1.2

Q: And the “The level of expressed mRNA in the presence of chemical substance/The level of expressed mRNA in the absence of chemical substance” value (yeast gene YNL300W, cultured two hours with substance)?
A: 0.8

Q: And the “The level of expressed mRNA in the presence of chemical substance/The level of expressed mRNA in the absence of chemical substance” value (yeast gene YNL305C, cultured two hours with substance)?
A: 1.3

Q: What about the “The level of expressed mRNA in the presence of chemical substance/The level of expressed mRNA in the absence of chemical substance” value (yeast gene YNL335W) of the same compound?
A: 4.6

Q: And the “The level of expressed mRNA in the presence of chemical substance/The level of expressed mRNA in the absence of chemical substance” value (yeast gene YNR064C, cultured two hours with substance)?
A: 0.8

Q: And the “The level of expressed mRNA in the presence of chemical substance/The level of expressed mRNA in the absence of chemical substance” value (yeast gene YNR068C, cultured two hours with substance)?
A: 1.8

Q: And the “The level of expressed mRNA in the presence of chemical substance/The level of expressed mRNA in the absence of chemical substance” value (yeast gene YOL032W, cultured two hours with substance)?
A: 1.3

Q: And the “The level of expressed mRNA in the presence of chemical substance/The level of expressed mRNA in the absence of chemical substance” value (yeast gene YOL036W, cultured two hours with substance)?
A: 1.0

Q: What about the “The level of expressed mRNA in the presence of chemical substance/The level of expressed mRNA in the absence of chemical substance” value (yeast gene YOL047C, cultured two hours with substance) of the same compound?
A: 1.2

Q: What about the “The level of expressed mRNA in the presence of chemical substance/The level of expressed mRNA in the absence of chemical substance” value (yeast gene YOL071W, cultured two hours with substance) of the same compound?
A: 2.5

Q: What about the “The level of expressed mRNA in the presence of chemical substance/The level of expressed mRNA in the absence of chemical substance” value (yeast gene YOL082W, cultured two hours with substance) of the same compound?
A: 1.4

Q: And the “The level of expressed mRNA in the presence of chemical substance/The level of expressed mRNA in the absence of chemical substance” value (yeast gene YOL083W, cultured two hours with substance)?
A: 1.4

Q: What about the “The level of expressed mRNA in the presence of chemical substance/The level of expressed mRNA in the absence of chemical substance” value (yeast gene YOL117W, cultured two hours with substance) of the same compound?
A: 1.7

Q: What about the “The level of expressed mRNA in the presence of chemical substance/The level of expressed mRNA in the absence of chemical substance” value (yeast gene YOL131W, cultured two hours with substance) of the same compound?
A: 2.3

Q: What about the “The level of expressed mRNA in the presence of chemical substance/The level of expressed mRNA in the absence of chemical substance” value (yeast gene YOL150C, cultured two hours with substance) of the same compound?
A: 5.7

Q: What about the “The level of expressed mRNA in the presence of chemical substance/The level of expressed mRNA in the absence of chemical substance” value (yeast gene YOL162W, cultured two hours with substance) of the same compound?
A: 1.4

Q: What about the “The level of expressed mRNA in the presence of chemical substance/The level of expressed mRNA in the absence of chemical substance” value (yeast gene YOR019W, cultured two hours with substance) of the same compound?
A: 1.4

Q: And the “The level of expressed mRNA in the presence of chemical substance/The level of expressed mRNA in the absence of chemical substance” value (yeast gene YOR049C, cultured two hours with substance)?
A: 1.5

Q: What about the “The level of expressed mRNA in the presence of chemical substance/The level of expressed mRNA in the absence of chemical substance” value (yeast gene YOR197W, cultured two hours with substance) of the same compound?
A: 0.7

Q: What about the “The level of expressed mRNA in the presence of chemical substance/The level of expressed mRNA in the absence of chemical substance” value (yeast gene YOR248W, cultured two hours with substance) of the same compound?
A: 0.5

Q: And the “The level of expressed mRNA in the presence of chemical substance/The level of expressed mRNA in the absence of chemical substance” value (yeast gene YOR338W, cultured two hours with substance)?
A: 2.5

Q: What about the “The level of expressed mRNA in the presence of chemical substance/The level of expressed mRNA in the absence of chemical substance” value (yeast gene YPL052W, cultured two hours with substance) of the same compound?
A: 3.2

Q: And the “The level of expressed mRNA in the presence of chemical substance/The level of expressed mRNA in the absence of chemical substance” value (yeast gene YPL087W, cultured two hours with substance)?
A: 1.2

Q: And the “The level of expressed mRNA in the presence of chemical substance/The level of expressed mRNA in the absence of chemical substance” value (yeast gene YPL171C, cultured for two hours with substance)?
A: 9.3

Q: What about the “The level of expressed mRNA in the presence of chemical substance/The level of expressed mRNA in the absence of chemical substance” value (yeast gene YPL196W, cultured two hours with substance) of the same compound?
A: 1.6

Q: And the “The level of expressed mRNA in the presence of chemical substance/The level of expressed mRNA in the absence of chemical substance” value (yeast gene YPL206C, cultured two hours with substance)?
A: 1.1

Q: What about the “The level of expressed mRNA in the presence of chemical substance/The level of expressed mRNA in the absence of chemical substance” value (yeast gene YPL222W, cultured two hours with substance) of the same compound?
A: 1.1

Q: And the “The level of expressed mRNA in the presence of chemical substance/The level of expressed mRNA in the absence of chemical substance” value (yeast gene YPR023C, cultured two hours with substance)?
A: 0.9

Q: What about the “The level of expressed mRNA in the presence of chemical substance/The level of expressed mRNA in the absence of chemical substance” value (yeast gene YPR079W, cultured two hours with substance) of the same compound?
A: 1.3

Q: And the “The level of expressed mRNA in the presence of chemical substance/The level of expressed mRNA in the absence of chemical substance” value (yeast gene YPR151C, cultured two hours with substance)?
A: 1.4
